Where a name gives a salt, the structure may show the parent alone.
Tests used:
[1] = target: T1, dopamine (DA) reuptake sites (Rattus norvegicus, UniProt P23977); test: displacement of [3H]GBR 12935 from dopamine reuptake sites, striatal membranes; assay type: binding; conditions: 10^-6 M test compound, [3H]GBR 12935 1 nM, one test only; for inhibition at 1 µM: read-out: DA uptake (% displacement of specific binding of tritiated ligand)
T1 construct: Striatal tissue from the brains of male Charles River rats weighing 150-250 g; from tissue; host or cells: rat brain striatum (crude synaptosomes in A1, washed membranes in A4)
Protocol: Striatal tissue from the brains of male Charles River rats weighing 150-250 g was homogenised in ice-cold 0.32M sucrose (1:80 w/v) using a motor driven teflon pestle (12 strokes, 800 rpm) and centrifuged at 1000 g for 12 minutes. The supernatant was stored on ice and the pellet was resuspended in 0.32M sucrose (1:80 w/v) and centrifuged at 850 g for 10 minutes. Combined supernatants were diluted to 1:320 w/v with ice-cold 50 mM Tris-HCl, pH 7.4 (at 25° C.) containing 200 mM sodium chloride and 5 mM potassium chloride (Tris buffer) and centrifuged at 40,000 g for 10 minutes. The resulting pellet was resuspended in 10 ml of 50 mM Tris buffer, incubated at 37° C. for 10 min, diluted in 50 mM Tris buffer (1:320 w/v) and recentrifuged at 40,000 g for 10 minutes. The final pellet was resuspended in 50 mM Tris buffer (equivalent to 1.25 mg wet weight of tissue/ml) and used immediately in the binding assay. All centrifugations were carried out at 4° C.
Membranes (800 μl; equivalent to 1 mg wet weight of tissue/tube) were incubated with 100 μl [^3 H]GBR 12935 at a single concentration of 1 nM and 100 μl of distilled water (total binding) or 100 μl of test compound (10^-6 M) or 100 μl of mazindol (1 μM; non-specific binding) for 90 min at 4° C.
Membrane bound radioactivity was recovered by filtration under vacuum through Whatman GF/C filters, pre-soaked for 1 h in 0.5% polyethylenimine,using a Brandel cell harvester. Filters were rapidly washed with 16 ml of ice-cold 50 mM Tris-HCl, pH 7.4 and radioactivity determined by liquid scintillation counting (2 ml Packard MV Gold scintillator).
(§1) For each of these tests measuring the ability of compounds of Formula I to displace standard ligands from dopamine (DA), 5-hydroxytryptamine (5-HT) and noradrenaline (NA) reuptake sites in vitro, the percentage displacement of specific binding of tritiated ligand by 10^-6 M test compound was calculated in the following way:
(§2) Firstly, specific binding of tritiated ligand in the absence (A) and presence (B) of test compound was determined:
(§3) In the absence of compound:
(§4) A (dpm)=Total binding (dpm)-Non-specific binding (dpm)
(§5) In the presence of compound (10^-6 M):
(§6) B (dpm)=Binding at 10^-6 M (dpm)-Non-specific binding (dpm)
(§7) The specific binding of tritiated ligand in the presence (B) of compound was then converted to a percentage of specific binding of tritiated ligand in the absence (A) of compound:
(§8) % Specific binding at 10^-6 M=B (dpm)/A(dpm)×100
(§9) The percentage displacement of specific binding of trtiated ligand by the test compound (10^-6 M) was then obtained by subtraction of the percentage specific binding in the presence of compound from the percentage specific binding in the absence of compound, which is taken as the maximum binding and so equals 100%:
(§10) % Displacement at 10^-6 M=100-% Specific binding at 10^-6 M.
(§11) The values given below in Table 2 for examples 6 to 76 are % displacement of specific binding of tritiated ligand by 10^-6 M test compound and represent results from one test only. IA refers to <50% displacement.

[2] = target: T2, 5-hydroxytryptamine (5-HT) reuptake sites (Rattus norvegicus, UniProt P31652); test: displacement of [3H]paroxetine from 5-HT reuptake sites, frontal cortical membranes; assay type: binding; conditions: 10^-6 M test compound, [3H]paroxetine 30 pM, one test only; for inhibition at 1 µM: read-out: 5-HT uptake (% displacement of specific binding of tritiated ligand)
T2 construct: Frontal cortical tissue from the brains of male Sprague-Dawley rats; from tissue; host or cells: rat brain frontal cortex (crude synaptosomes in A2, washed membranes in A5)
Protocol: Frontal cortical tissue from the brains of male Charles River rats weighing 150-250 g was homogenised in ice-cold 0.25M sucrose (1:30 w/v) using a Kinematic polytron (speed setting 6 for 30 seconds) and centrifuged at 1000 g for 12 minutes. The supernatant was stored on ice and the pellet was resuspended in 0.25M sucrose (1:20 w/v) and centrifuged at 850 g for 10 minutes. Combined supernatants were diluted to 1:100 w/v with ice-cold 50 mM Tris-HCl, pH 7.5 (at 25° C.) containing 120 mM sodium chloride and 5 mM potassium chloride (Tris buffer) and centrifuged at 40,000 g for 10 minutes. The resulting pellet was resuspended in 50 mM Tris buffer (1:100 w/v) and recentrifuged at 40,000 g for 10 minutes. The final pellet was resuspended in 50 mM Tris buffer (equivalent to 2 mg wet weight of tissue/ml) and used immediately in the binding assay. All centrifugations were carried out at 4° C.
Membranes (1000 μl; equivalent to 2 mg wet weight of tissue/tube) were incubated with 200 μl [^3 H]paroxetine at a single concentration of 30 pM and 200 μl of distilled water (total binding) or 200 μl of test compound (10^-6 M) or 200 μl of citalopram (1 μM; non-specific binding) for 2 h at 22° C.
Membrane bound radioactivity was recovered by filtration under vacuum through Whatman GFIC filters using a Brandel cell harvester. Filters were rapidly washed with 16 ml ice-cold 50 mM Tris buffer and radioactivity determined by liquid scintillation counting (2 ml Packard MV Gold scintillator).
as §1, §2, §3, §4, §5, §6, §7, §8, §9, §10, §11

[3] = target: T3, noradrenaline (NA) reuptake sites (Rattus norvegicus, UniProt Q63380); test: displacement of [3H]nisoxetine from noradrenaline reuptake sites, frontal cortical membranes; conditions: 10^-6 M test compound, [3H]nisoxetine 0.6 nM, one test only, read-out: NA uptake (% displacement of specific binding of tritiated ligand)
T3 construct: Frontal cortical tissue from the brains of male Sprague-Dawley rats; from tissue; host or cells: rat brain frontal cortex (crude synaptosomes in A3, washed membranes in A6)
Protocol: Frontal cortical tissue from the brains of male Charles River rats weighing 150-250 g was homogenised in ice-cold 50 mM Tris-HCl, pH 7.4 (at 25° C.) containing 120 mM sodium chloride and 5 mM potassium chloride (Tris buffer; 1:60 w/v) using a Kinematic polytron (speed setting 6 for 30 seconds) and centrifuged at 40,000 g for 10 minutes. The supernatant was discarded and the pellet rehomogenised in Tris buffer, 1:60 w/v, and centrifuged at 40,000 g for 10 minutes. This step was repeated twice more so that, in total, the brain tissue was homogenised and centrifuged four times. The final pellet was resuspended in 50 mM Tris-HCl, pH 7.4 containing 300 mM sodium chloride and 5 mM potassium chloride (equivalent to 25 mg wet weight of tissue/ml) and used immediately in the binding assay. All centrifugations were performed at 4° C.
Membranes (400 μl; equivalent to 10 mg wet weight of tissue/tube) were incubated with 50 μl [^3 H]nisoxetine at a single concentration of 0.6 nM and 50 μl of distilled water (total binding) or 50 μl of test compound (10^-6 M) or 50 μl of mazindol (1 μM; non-specific binding) for 4 h at 4° C.
Membrane bound radioactivity was recovered by filtration under vacuum through Skatron 11734 filters using a Skatron cell harvester. Filters were rapidly washed with ice-cold 50 mM Tris-HCl, pH 7.4 containing 120 mM sodium chloride and 5 mM potassium chloride (wash setting 9,9,0) and radioactivity determined by liquid scintillation counting (1 ml Packard MV Gold scintillator).
as §1, §2, §3, §4, §5, §6, §7, §8, §9, §10, §11

T2 sequence (P31652 whole entry): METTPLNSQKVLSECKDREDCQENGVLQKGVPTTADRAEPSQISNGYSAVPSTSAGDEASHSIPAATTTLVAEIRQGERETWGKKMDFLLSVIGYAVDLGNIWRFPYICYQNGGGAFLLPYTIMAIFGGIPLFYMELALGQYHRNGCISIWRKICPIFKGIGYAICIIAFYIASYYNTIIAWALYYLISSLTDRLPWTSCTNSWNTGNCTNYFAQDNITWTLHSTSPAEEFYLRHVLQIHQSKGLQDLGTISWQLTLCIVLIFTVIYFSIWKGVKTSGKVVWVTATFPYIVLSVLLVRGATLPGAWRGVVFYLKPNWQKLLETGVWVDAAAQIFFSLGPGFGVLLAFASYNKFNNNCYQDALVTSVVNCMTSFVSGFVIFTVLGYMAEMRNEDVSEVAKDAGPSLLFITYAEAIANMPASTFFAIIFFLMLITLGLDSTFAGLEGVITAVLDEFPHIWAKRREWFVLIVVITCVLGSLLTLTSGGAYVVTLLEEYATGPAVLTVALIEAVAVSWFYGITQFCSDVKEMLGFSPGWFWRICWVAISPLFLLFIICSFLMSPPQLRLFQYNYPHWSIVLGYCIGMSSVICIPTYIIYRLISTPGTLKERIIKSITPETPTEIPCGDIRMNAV
T3 sequence (Q63380 1-617): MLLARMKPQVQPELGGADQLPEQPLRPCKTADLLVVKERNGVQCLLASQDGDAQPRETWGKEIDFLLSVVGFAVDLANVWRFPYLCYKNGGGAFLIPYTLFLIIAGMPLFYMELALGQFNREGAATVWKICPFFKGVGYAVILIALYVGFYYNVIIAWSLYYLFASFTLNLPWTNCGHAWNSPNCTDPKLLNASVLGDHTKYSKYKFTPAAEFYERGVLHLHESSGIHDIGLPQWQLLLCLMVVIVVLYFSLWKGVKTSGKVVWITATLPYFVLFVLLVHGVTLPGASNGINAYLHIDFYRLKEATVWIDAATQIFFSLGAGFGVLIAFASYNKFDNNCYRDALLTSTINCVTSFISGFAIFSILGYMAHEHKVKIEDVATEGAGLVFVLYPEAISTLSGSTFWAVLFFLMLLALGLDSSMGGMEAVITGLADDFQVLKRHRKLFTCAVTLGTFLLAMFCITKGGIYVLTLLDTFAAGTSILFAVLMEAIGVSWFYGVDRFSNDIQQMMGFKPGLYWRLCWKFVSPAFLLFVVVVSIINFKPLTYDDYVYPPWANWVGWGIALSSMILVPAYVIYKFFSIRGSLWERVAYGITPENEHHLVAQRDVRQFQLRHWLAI
T1 sequence (P23977 whole entry): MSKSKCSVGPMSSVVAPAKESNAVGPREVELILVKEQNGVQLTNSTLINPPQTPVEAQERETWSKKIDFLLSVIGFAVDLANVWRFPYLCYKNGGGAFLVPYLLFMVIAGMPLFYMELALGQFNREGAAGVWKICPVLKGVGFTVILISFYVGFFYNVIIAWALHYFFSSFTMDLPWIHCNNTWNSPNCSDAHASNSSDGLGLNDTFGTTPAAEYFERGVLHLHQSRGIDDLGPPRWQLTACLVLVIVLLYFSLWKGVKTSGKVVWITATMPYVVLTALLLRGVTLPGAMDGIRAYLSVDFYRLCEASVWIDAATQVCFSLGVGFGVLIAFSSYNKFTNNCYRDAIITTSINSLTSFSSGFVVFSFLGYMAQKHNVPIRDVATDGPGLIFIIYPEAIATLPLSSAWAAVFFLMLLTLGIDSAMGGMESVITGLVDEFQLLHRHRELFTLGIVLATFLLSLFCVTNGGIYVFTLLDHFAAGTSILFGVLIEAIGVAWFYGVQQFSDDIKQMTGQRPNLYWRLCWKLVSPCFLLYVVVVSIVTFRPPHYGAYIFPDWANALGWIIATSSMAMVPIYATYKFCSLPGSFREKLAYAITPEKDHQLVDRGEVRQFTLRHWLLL

Clc1ccc(C2(C3=CSC4=NCCN34)CCCC2)cc1Cl [Example 6, 3-[1-(3,4-dichlorophenyl)cyclopentyl]-5,6-dihydroimidazo[2,1-b]thiazole hydrobromide]
inhibition at 1 µM [1]: 112%
inhibition at 1 µM [2]: 86%
inhibition at 1 µM [3]: 101%

Clc1ccc(C2(C3=C(Cc4ccccc4)SC4=NCCN43)CCC2)cc1 [Example 7, 2-benzyl-3-[1-(4-chlorophenyl)cyclobutyl]-5,6-dihydroimidazo[2,1-b]-thiazole hydrobromide]
inhibition at 1 µM [1]: 69%
inhibition at 1 µM [2]: 85%
inhibition at 1 µM [3]: < 50%

COCCC1=C(C2(c3ccc(Cl)c(Cl)c3)CCC2)N2CCN=C2S1 [Example 8, 3-[1-(3,4-dichlorophenyl)cyclobutyl]-2-(2-methoxyethyl)-5,6-dihydroimidazo[2,1-b]-thiazole hydrobromide]
inhibition at 1 µM [1]: < 50%
inhibition at 1 µM [2]: 62%
inhibition at 1 µM [3]: < 50%

Clc1ccc(C2(C3=C(c4ccccc4)SC4=NCCN43)CCC2)cc1Cl [Example 9, 3-[1-(3,4-dichlorophenyl)cyclobutyl]-2-phenyl-5,6-dihydroimidazo[2,1-b]thiazole hydrobromide]
inhibition at 1 µM [1]: 60%
inhibition at 1 µM [2]: 75%
inhibition at 1 µM [3]: < 50%

Clc1ccc(C2=C(C3(c4ccc(Cl)c(Cl)c4)CCC3)N3CCN=C3S2)cc1 [Example 10, 2-(4-chlorophenyl)-3-[1-(3,4-dichlorophenyl)cyclobutyl]-5,6-dihydroimidazo[2,1-b]thiazole hydrobromide]
inhibition at 1 µM [1]: 85%
inhibition at 1 µM [2]: 57%
inhibition at 1 µM [3]: < 50%

CC(C)(C1=CSC2=NCCN12)c1ccc(Cl)c(Cl)c1 [Example 11, 3-[1-(3,4-dichlorophenyl)-1-methylethyl]-5,6-dihydroimidazo[2,1-b]-thiazole hydrobromide]
inhibition at 1 µM [1]: 102%
inhibition at 1 µM [2]: 57%
inhibition at 1 µM [3]: < 50%

C1=C(C2(c3cc4ccccc4s3)CCC2)N2CCN=C2S1 [Example 12, 3-[1-(benzo[b]thiophen-2-yl)cyclobutyl]-5,6-dihydroimidazo[2,1-b]thiazole hydrobromide]
inhibition at 1 µM [1]: 121%
inhibition at 1 µM [2]: 77%
inhibition at 1 µM [3]: 95%

CN=c1scc(C2(c3ccc(Cl)c(Cl)c3)CCC2)n1C [Example 14, 4-[1-(3,4-Dichlorophenyl)cyclobutyl]-3-methyl-2-methylimino-2,3 dihydrothiazole hydrobromide]
inhibition at 1 µM [1]: 103%
inhibition at 1 µM [2]: 96%
inhibition at 1 µM [3]: 80%

CCN=c1scc(C2(c3ccc(Cl)c(Cl)c3)CCC2)n1CC [Example 15, 4-[1-(3,4-Dichlorophenyl)cyclobutyl]-3-ethyl-2-ethylimino-2,3-dihydrothiazole hydrobromide]
inhibition at 1 µM [1]: 115%
inhibition at 1 µM [2]: 102%
inhibition at 1 µM [3]: 99%

CCCN=c1scc(C2(c3ccc(Cl)c(Cl)c3)CCC2)n1CCC [Example 16, 4-[1-(3,4-Dichlorophenyl)cyclobutyl]-3-propyl-2-propylimino-2,3-dihydrothiazole hydrobromide]
inhibition at 1 µM [1]: 116%
inhibition at 1 µM [2]: 102%
inhibition at 1 µM [3]: 56%

CC(C)N=c1scc(C2(c3ccc(Cl)c(Cl)c3)CCC2)n1C(C)C [Example 17, 4-[1-(3,4-Dichlorophenyl)cyclobutyl]-3-isopropyl-2-isopropylimino-2,3-dihydrothiazole hydrobromide]
inhibition at 1 µM [1]: 112%
inhibition at 1 µM [2]: 95%
inhibition at 1 µM [3]: 63%

CCCCN=c1scc(C2(c3ccc(Cl)c(Cl)c3)CCC2)n1CCCC [Example 18, 3-Butyl-2-butylimino-4-[1-(3,4-dichlorophenyl)cyclobutyl]-2,3-dihydrothiazole hydrobromide]
inhibition at 1 µM [1]: 106%
inhibition at 1 µM [2]: 95%
inhibition at 1 µM [3]: 63%

CC(C)CN=c1scc(C2(c3ccc(Cl)c(Cl)c3)CCC2)n1CC(C)C [Example 19, 4-[1-(3,4-Dichlorophenyl)cyclobutyl]-3-isobutyl-2-isobutylimino-2,3-dihydrothiazole hydrobromide]
inhibition at 1 µM [1]: 107%
inhibition at 1 µM [2]: 89%
inhibition at 1 µM [3]: < 50%

C=CCN=c1scc(C2(c3ccc(Cl)c(Cl)c3)CCC2)n1CC=C [Example 20, 3-Allyl-2-allylimino-4-[1-(3,4-dichlorophenyl)cyclobutyl]-2,3-dihydrothiazole hydrobromide]
inhibition at 1 µM [1]: 105%
inhibition at 1 µM [2]: 104%
inhibition at 1 µM [3]: 91%

Clc1ccc(C2(c3csc(=NCC4CC4)n3CC3CC3)CCC2)cc1Cl [Example 21, 4-[1-(3,4-Dichlorophenyl)cyclobutyl]-3-cyclopropylmethyl-2-cyclopropylmethylimino-2,3-dihydrothiazole hydrobromide]
inhibition at 1 µM [1]: 108%
inhibition at 1 µM [2]: 103%
inhibition at 1 µM [3]: 50%

Br.CC(C)(C1=CSC2=NCCN12)c1ccc(Cl)c(Cl)c1 [Example 74, 3-[1-(3,4-Dichlorophenyl)-1-methylethyl]-5,6-dihydroimidazo[2,1-b]thiazole hydrobromide]
DA uptake (% displacement of specific binding of tritiated ligand) ([1]; hydrobromide, 1 µM): 97%
5-HT uptake (% displacement of specific binding of tritiated ligand) ([2]; 1 µM, hydrobromide): 52%
